# Assay results taken from US6229029A, “11β-aryl substituted 14,17-ethanoestratriens, method for the production of these compounds and their use in the production of medicaments” (Schering Aktiengesellschaft, priority 1997, dated 2001).
# What was measured:
# [1] = system: trabecular bone (proximal tibia) of ovariectomized rats; experiment: Bone studies in ovariectomized rats: trabecular bone surface area (TB/TV), histological, proximal tibia; format: in vivo, rat; settings: 28 days
# Procedure: 3-month-old female rats are ovariectomized and treated once daily with the test compound immediately after the operation for 28 days. The administration is done subcutaneously in castor oil/benzyl benzoate or arachis oil/ethanol. The animals are sacrificed on the day after the last administration, and femurs, tibiae and uteri are removed. The uteri are weighed, fixed and worked up for histological studies. The determination of the bone density is carried out ex vivo on prepared long bones with use of pQCT (Quantitative Computer Tomography). The measurements are performed at a distance of 5-7 mm from the ball of the joint on the distal femur or the proximal tibia.
# As an alternative, the action on the bone is determined by measuring the trabecular bone surface area of the secondary spongiosa in histological preparations of the distal femur or the proximal tibia. The result is expressed as the proportion, in percent, of the trabecular bone surface area in the measured total bone surface area ([…]). The bone density that is measured with use of QCT and the trabecular bone surface area that is determined in the histological section correlate well to one another. A comparison of the two measurement variables is therefore permissible.
# About 50% of the bone density of the animals is lost by the ovariectomy. […] In Table 4 and FIG. 2, the results of this test for doses of 0.1-100 μg/animal/day are presented. The bone density was measured on the distal femur; for comparison, the trabecular bone surface area in the proximal tibia was measured. The data that are contained in Table 4 mean specifically:
# TB/TV trabecular bone surface area/total bone surface area; histologically determined
# For compound B according to the invention, their bone-protecting action was also determined (Table 6). For this purpose, the parameter of TB/TV was determined, which, however, with respect to the informational value for the bone-protecting activity correlates well to the parameter of BMD-qCT that is determined for compounds A and V. This can be ascertained from Table 4; both parameters were determined for compound A.
# human estrogen receptor = molecular target: T1, human estrogen receptor (Homo sapiens, UniProt P03372); experiment: Transactivation assay in HeLa cells (antiestrogenic action, vit-TK-CAT reporter); format: cell-based; settings: in the presence of 0.1 nM estradiol, read-out: Antagonism IC50, HELA
# T1 construct: expressed in transfected cells; host or cells: HeLa cells
# T1 sequence (P03372 1-595): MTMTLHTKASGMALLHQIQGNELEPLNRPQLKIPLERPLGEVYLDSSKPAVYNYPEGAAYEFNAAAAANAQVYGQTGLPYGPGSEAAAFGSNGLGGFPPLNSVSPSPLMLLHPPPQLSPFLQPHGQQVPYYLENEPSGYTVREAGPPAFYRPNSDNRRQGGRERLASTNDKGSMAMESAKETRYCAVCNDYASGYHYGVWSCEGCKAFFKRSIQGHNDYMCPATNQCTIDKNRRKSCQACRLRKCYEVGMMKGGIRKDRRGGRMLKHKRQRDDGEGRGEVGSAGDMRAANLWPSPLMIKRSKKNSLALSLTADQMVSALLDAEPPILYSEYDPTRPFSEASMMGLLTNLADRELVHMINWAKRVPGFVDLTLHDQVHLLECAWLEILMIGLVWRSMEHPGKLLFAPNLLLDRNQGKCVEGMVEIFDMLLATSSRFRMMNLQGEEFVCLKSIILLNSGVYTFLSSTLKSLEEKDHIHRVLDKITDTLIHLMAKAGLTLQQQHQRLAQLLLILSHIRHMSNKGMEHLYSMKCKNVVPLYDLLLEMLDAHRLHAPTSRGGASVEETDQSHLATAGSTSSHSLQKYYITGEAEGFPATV
# uterus of infant rats [2] = experiment: Uterus growth test on infant rats (estrogenic action); format: in vivo, rat; settings: for Epithelial Height % E2 / Uterus Weight % E2: 3 days, infant rats; for estrogenic action in the uterus (in words): uterus growth test
# Description: (§1) The influence of the compounds according to the invention on the uterus was examined in the uterus growth test (estrogenic action) and in the anti-uterus growth test (antiestrogenic action), both performed on infant rats.
# In infant animals, both uterus and vagina show one of the estrogenic activity-dependent weight increases in their treatment with an estrogenically active substance. In the uterus, under estrogenic action, moreover, it results in a proliferation and height increase of the luminal epithelium.
# Immature, normal rats (body weight 40-50 g) receive the substance s.c. over 3 days (d1-d3). On day 4 (d4), the animals are sacrificed with CO2. The uteri are prepared outside and weighed. A piece of the uterus, preferably a uterine horn, is set in formaldehyde for the histological evaluation and embedded in paraffin. The stimulation of the organ weights (relative to mg/100 g of body weight) and the epithelial height are indicated in percentage stimulation in comparison to the reference compound 17β-estradiol. (Substitution dose E2 0.3 μg/animal).
# uterus of infant rats [3] = experiment: Anti-uterus growth test in infant rats (antiestrogenic action); format: in vivo, rat; settings: with 0.3 μg/animal/day 17β-estradiol
# Description: as §1
# The uterus of infant estrogen-substituted rats can be used as a test model to detect a direct action of substances with antiestrogenic properties. The parameter of the estrogenic action is the uterus growth that is induced by estradiol in infant rats and that is inhibited by simultaneous administration of a substance with antiestrogenic action.
# The test substances are treated s.c. on 3 successive days (d1-d3) in combination with a substitution dose of 0.3 μg/animal/day of 17β-estradiol. As a positive control, 17β-estradiol alone is used; the vehicle group is used as a negative control. On day 4 (d4), the animals are sacrificed, uteri and vaginae are prepared outside and weighed. The organ weights are converted into mg/100 g of body weight, and then the mean and the standard deviation for each dosage are calculated. The inhibition of the uterus or vaginal growth that is induced by 17β-estradiol is indicated in % as inhibition.
# estrogen receptors = molecular target: T2, estrogen receptors (Homo sapiens, UniProt P03372); experiment: Transactivation assay in HeLa cells (partial estrogenic action, rPR-TK); format: cell-based; settings: rPR-TK reporter, read-out: Agonism HELA (rPR-TK)
# T2 construct: expressed in transfected cells; host or cells: HeLa cells
# Procedure: The partial estrogenic action was also determined by transactivation assays. HeLa cells were […] with estrogen receptors and a reporter gene, which consists of the estrogen-response element of the progesterone receptor and the CAT-gene. The test was performed as described: Savouret et al., EMBO J. 10, 1875-1883 (1991).
# bone / uterus of rats = experiment: Dissociation of bone action/uterus action (FIG. 7); format: in vivo, rat; settings: bone action vs uterus epithelial height, relative to 17β-estradiol
# Description: There, for compounds A, B and V, their bone-protecting actions are compared to the action of estrogen on the uterus (parameter: uterus epithelial height) as a function of dosage, in each case relative to the action of 17β-estradiol.
# [4] = system: bone (distal femur / proximal tibia) of ovariectomized rats; experiment: Bone studies in ovariectomized rats: bone density by pQCT; format: in vivo, rat; settings: for % of Action of E2 (bone density tibia) / Bone Density Tibia: Table 7, proximal tibia
# [5] = Table 6, tibia, 1 μg/animal/day s.c.
# [6] = Table 6, tibia, 10 μg/animal/day s.c.
# [7] = Table 6, tibia, 100 μg/animal/day s.c.
# [8] = Table 6, tibia, 0.3 μg/animal/day s.c.
# [9] = Table 4, distal femur, 0.3 μg/animal/day s.c., 28 days
# [10] = Table 5, proximal tibia, 0.3 μg/animal/day s.c., 28 days
# [11] = 0.3 μg/animal/day s.c., 28 days
# [12] = 100 μg/animal/day s.c., 28 days
# [13] = 250 μg/animal/day s.c., 28 days
structure (smiles),measurement,setting,value
"C[C@]12C[C@H](c3ccc(OCCCCC[S+]([O-])Cc4ccccn4)cc3)[C@@H]3c4ccc(O)cc4CC[C@H]3[C@]13CC[C@@]2(O)CC3 (stereo partly drawn) [Compound B, 14α,17α-ethano-11β-{4-[5-(2-pyridinomethylsulfinyl)pentyloxy]phenyl}-1,3,5(10)-estratriene-3,17β-diol]",% of Action of E2 (TB/TV),[1]; [5],52%
same,TB/TV (Tibia),[1]; [5],19.6%
same,% of Action of E2 (TB/TV),[1]; [6],47%
same,TB/TV (Tibia),[1]; [6],18.9%
same,% of Action of E2 (TB/TV),[1]; [7],45%
same,TB/TV (Tibia),[1]; [7],18.6%
same,IC50,human estrogen receptor,0.3 nM
same,Epithelial Height % E2,uterus of infant rats [2]; 0.01 mg/kg s.c.,4 % E2
same,Uterus Weight % E2,uterus of infant rats [2]; 0.01 mg/kg s.c.,3 % E2
same,Epithelial Height % E2,uterus of infant rats [2]; 0.1 mg/kg s.c.,19 % E2
same,Uterus Weight % E2,uterus of infant rats [2]; 0.1 mg/kg s.c.,31 % E2
same,Epithelial Height % E2,uterus of infant rats [2]; 1 mg/kg s.c.,18 % E2
same,Uterus Weight % E2,uterus of infant rats [2]; 1 mg/kg s.c.,14 % E2
same,Epithelial Height % E2,uterus of infant rats [2]; 10 mg/kg s.c.,13 % E2
same,Uterus Weight % E2,uterus of infant rats [2]; 10 mg/kg s.c.,6 % E2
same,estrogenic activity relative to compound V (in words),"uterus of infant rats [2]; s.c., in the considered dose range, vs compound V",approximately half as strongly estrogenically active
same,estrogenic action in the uterus (in words),uterus of infant rats [2]; s.c.,low estrogenic action
same,Uterus Weight % of Inhibition,uterus of infant rats [3]; 0.1 mg/kg s.c.,32%
same,Uterus Weight % of Inhibition,uterus of infant rats [3]; 1 mg/kg s.c.,83%
same,Uterus Weight % of Inhibition,uterus of infant rats [3]; 10 mg/kg s.c.,100%
same,Emax,estrogen receptors,50%
same,dissociation of bone-protecting action from estrogen action on the uterus (in words),bone / uterus of rats,considerably dissociated
"C[C@]12CC[C@@H]3c4ccc(O)cc4CC[C@H]3[C@@H]1CC[C@@H]2O [17β-estradiol, reference compound]",TB/TV (Tibia),"[1]; Table 4, proximal tibia, 0.3 μg/animal/day s.c.",34.0%
same,% of Action of E2 (TB/TV),[1]; [8],100%
same,TB/TV (Tibia),[1]; [8],26.0%
same,% of Action of E2 (bone density femur),[4]; [9],100%
same,Bone Density Femur,[4]; [9],361.7 mg Ca/ccm
same,% of Action of E2 (bone density),[4]; [10],100%
same,Bone Density,[4]; [10],375.2 mg Ca/ccm
same,% of Action of E2 (bone density tibia),[4]; [11],100%
same,Bone Density Tibia,[4]; [11],402.9 mg Ca/ccm
"C[C@]12C[C@H](c3ccc(OCCCCC[S+]([O-])Cc4ccccn4)cc3)[C@@H]3c4ccc(O)cc4CC[C@H]3[C@@H]1CC[C@@H]2O (stereo partly drawn) [Compound V, reference compound]",Epithelial Height % E2,uterus of infant rats [2]; 0.03 mg/kg s.c.,18 % E2
same,Uterus Weight % E2,uterus of infant rats [2]; 0.03 mg/kg s.c.,28 % E2
same,Epithelial Height % E2,uterus of infant rats [2]; 0.3 mg/kg s.c.,33 % E2
same,Uterus Weight % E2,uterus of infant rats [2]; 0.3 mg/kg s.c.,32 % E2
same,Epithelial Height % E2,uterus of infant rats [2]; 3 mg/kg s.c.,27 % E2
same,Uterus Weight % E2,uterus of infant rats [2]; 3 mg/kg s.c.,19 % E2
same,estrogenic action in the uterus (in words),uterus of infant rats [2]; s.c.,low estrogenic action
same,Uterus Weight % of Inhibition,uterus of infant rats [3]; 0.3 mg/kg s.c.,57%
same,% of Action of E2 (bone density tibia),"[4]; 10 μg/animal/day s.c., 28 days",40%
same,Bone Density Tibia,"[4]; 10 μg/animal/day s.c., 28 days",337.3 mg Ca/ccm
same,% of Action of E2 (bone density tibia),[4]; [12],34.4%
same,Bone Density Tibia,[4]; [12],331.2 mg Ca/ccm
same,% of Action of E2 (bone density tibia),[4]; [13],74%
same,Bone Density Tibia,[4]; [13],374.3 mg Ca/ccm
same,dose with which an action of about 80% of 17β-estradiol on trabecular bone is achieved,"[4]; proximal tibia, s.c.",250 μg/animal/day
same,Emax,estrogen receptors,37%
same,dissociation of bone-protecting action from estrogen action on the uterus (in words),bone / uterus of rats,the two curves coincide
